SMILES strings stand for the structures. ≈ marks a conversion by molar mass, not a printed value.

For series [1], the target named is T1, Macrophage colony-stimulating factor 1 receptor (Homo sapiens, UniProt P07333). As to the kind of experiment: Inhibition of CSF1R.
A short description of series [2]: Aqueous solubility of the compound. The series is classed as physicochemical. To be noted: buffer.
Series [3] in a line: Plasma protein binding assessed as percentage unbound.
Series [4] can be described thus: Bioavailability in rat at 3 mg/kg, iv and 10 mg/kg, po. The series is classed as ADME, organism-based. To be noted: in vivo.
The nature of series [5]: Clearance in rat at 3 mg/kg, iv and 10 mg/kg, po. The series is classed as ADME, organism-based. The settings on record: in vivo.
The nature of series [6]: Volume of distribution at steady state in rat at 3 mg/kg, iv and 10 mg/kg, po. The series is classed as ADME, organism-based. To be noted: in vivo, read-out: Vdss.
The nature of series [7]: Half life in rat at 3 mg/kg, iv and 10 mg/kg, po. The series is classed as ADME, organism-based. To be noted: in vivo.
In series [8] the test system is Mus musculus. As to the kind of experiment: Inhibition of phosphorylated CSF1R level in 3T3/CSF1R mutant cells xenografted nude mouse at 25 mg/kg, po after 2 hrs by ELISA. The series is classed as functional.
In series [9] the test system is Mus musculus. As to the kind of experiment: Inhibition of phosphorylated CSF1R level in 3T3/CSF1R mutant cells xenografted nude mouse at 25 mg/kg, po after 6 hrs by ELISA. The series is classed as functional. (An ELISA detects its analyte on a solid surface through an enzyme-linked reagent.)
Series [10] deals with T1, Macrophage colony-stimulating factor 1 receptor. The experiment in a line: Inhibition of CSF1R at 1 uM.
Series [11] deals with T2, NUAK family SNF1-like kinase 1 (Homo sapiens) (UniProt O60285).
T2 sequence (whole entry): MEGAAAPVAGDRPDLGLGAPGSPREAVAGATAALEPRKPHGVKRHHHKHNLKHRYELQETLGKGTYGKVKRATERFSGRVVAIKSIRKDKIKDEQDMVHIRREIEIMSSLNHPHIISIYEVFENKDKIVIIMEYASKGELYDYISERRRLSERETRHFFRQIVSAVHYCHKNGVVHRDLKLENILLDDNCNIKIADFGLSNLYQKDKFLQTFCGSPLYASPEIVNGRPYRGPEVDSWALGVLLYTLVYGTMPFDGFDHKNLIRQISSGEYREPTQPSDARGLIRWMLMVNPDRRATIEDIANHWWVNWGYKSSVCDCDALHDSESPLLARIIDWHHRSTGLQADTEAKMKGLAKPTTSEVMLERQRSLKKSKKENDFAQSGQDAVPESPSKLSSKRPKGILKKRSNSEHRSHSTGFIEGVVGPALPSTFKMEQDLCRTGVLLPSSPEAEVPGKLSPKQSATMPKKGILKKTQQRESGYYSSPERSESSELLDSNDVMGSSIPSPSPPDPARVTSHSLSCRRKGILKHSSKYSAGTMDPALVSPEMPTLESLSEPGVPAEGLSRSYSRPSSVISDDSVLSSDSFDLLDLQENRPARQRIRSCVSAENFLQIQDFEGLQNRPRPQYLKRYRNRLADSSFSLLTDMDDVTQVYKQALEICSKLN
The experiment in a line: Inhibition of ARK5 at 1 uM.

Series [12] has as its target ALK tyrosine kinase receptor (Homo sapiens) (UniProt Q9UM73). The experiment in a line: Inhibition of ALK at 1 uM.
Series [13] addresses Ribosomal protein S6 kinase alpha-1 (Homo sapiens) (UniProt Q15418). The experiment in a line: Inhibition of RSK1 at 1 uM.
Series [14] concerns NIH3T3. The experiment in a line: Antiproliferative activity against mouse 3T3 cells expressing human CSF1R after 72 hrs by Celltiter assay. The series is classed as functional.

T1 sequence (P07333 whole entry): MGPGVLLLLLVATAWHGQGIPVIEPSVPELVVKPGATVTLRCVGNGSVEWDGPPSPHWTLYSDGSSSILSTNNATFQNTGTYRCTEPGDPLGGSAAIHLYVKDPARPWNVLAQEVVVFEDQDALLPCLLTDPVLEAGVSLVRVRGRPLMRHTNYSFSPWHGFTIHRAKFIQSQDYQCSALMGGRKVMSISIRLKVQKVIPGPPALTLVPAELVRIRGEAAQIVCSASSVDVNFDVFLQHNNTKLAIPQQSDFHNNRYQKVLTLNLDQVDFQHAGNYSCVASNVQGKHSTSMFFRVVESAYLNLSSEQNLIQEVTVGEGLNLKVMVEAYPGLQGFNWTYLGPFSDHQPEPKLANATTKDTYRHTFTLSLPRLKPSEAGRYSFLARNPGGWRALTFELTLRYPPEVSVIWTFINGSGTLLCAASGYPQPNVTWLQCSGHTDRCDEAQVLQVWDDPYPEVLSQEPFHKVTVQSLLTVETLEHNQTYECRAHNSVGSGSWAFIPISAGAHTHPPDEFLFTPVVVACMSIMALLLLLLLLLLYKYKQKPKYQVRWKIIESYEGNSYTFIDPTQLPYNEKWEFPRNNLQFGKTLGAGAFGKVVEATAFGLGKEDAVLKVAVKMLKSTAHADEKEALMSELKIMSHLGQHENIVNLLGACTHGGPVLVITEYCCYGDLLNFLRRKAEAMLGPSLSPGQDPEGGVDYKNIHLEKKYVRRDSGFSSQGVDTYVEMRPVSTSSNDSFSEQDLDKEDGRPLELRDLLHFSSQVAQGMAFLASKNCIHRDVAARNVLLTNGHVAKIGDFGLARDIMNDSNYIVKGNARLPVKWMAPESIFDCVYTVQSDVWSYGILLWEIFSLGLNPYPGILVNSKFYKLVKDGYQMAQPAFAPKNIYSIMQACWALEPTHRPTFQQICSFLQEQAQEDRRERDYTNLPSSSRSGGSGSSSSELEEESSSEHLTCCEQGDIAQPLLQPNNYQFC
Sequence of Ribosomal protein S6 kinase alpha-1 (Homo sapiens) (Q15418 whole entry): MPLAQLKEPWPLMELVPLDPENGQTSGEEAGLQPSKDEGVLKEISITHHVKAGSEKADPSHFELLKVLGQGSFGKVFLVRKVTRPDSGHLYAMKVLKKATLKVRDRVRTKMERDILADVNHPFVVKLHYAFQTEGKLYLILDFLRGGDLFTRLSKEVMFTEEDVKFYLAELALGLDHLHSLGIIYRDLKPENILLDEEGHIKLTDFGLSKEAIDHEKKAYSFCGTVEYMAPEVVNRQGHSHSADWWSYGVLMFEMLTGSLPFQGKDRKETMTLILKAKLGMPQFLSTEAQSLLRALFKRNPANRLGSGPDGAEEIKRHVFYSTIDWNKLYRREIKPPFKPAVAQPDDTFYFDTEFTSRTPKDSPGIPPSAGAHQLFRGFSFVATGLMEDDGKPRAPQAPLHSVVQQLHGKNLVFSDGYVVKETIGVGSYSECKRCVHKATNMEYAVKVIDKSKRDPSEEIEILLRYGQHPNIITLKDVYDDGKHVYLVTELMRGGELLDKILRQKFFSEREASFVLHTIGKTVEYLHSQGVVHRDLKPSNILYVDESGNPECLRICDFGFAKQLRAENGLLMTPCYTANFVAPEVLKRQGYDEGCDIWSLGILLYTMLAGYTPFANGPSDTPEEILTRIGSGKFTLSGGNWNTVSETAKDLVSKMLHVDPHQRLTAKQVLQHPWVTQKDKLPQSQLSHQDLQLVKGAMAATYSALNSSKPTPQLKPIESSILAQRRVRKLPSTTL
Sequence of ALK tyrosine kinase receptor (Homo sapiens) (Q9UM73 19-1620 limits assumed): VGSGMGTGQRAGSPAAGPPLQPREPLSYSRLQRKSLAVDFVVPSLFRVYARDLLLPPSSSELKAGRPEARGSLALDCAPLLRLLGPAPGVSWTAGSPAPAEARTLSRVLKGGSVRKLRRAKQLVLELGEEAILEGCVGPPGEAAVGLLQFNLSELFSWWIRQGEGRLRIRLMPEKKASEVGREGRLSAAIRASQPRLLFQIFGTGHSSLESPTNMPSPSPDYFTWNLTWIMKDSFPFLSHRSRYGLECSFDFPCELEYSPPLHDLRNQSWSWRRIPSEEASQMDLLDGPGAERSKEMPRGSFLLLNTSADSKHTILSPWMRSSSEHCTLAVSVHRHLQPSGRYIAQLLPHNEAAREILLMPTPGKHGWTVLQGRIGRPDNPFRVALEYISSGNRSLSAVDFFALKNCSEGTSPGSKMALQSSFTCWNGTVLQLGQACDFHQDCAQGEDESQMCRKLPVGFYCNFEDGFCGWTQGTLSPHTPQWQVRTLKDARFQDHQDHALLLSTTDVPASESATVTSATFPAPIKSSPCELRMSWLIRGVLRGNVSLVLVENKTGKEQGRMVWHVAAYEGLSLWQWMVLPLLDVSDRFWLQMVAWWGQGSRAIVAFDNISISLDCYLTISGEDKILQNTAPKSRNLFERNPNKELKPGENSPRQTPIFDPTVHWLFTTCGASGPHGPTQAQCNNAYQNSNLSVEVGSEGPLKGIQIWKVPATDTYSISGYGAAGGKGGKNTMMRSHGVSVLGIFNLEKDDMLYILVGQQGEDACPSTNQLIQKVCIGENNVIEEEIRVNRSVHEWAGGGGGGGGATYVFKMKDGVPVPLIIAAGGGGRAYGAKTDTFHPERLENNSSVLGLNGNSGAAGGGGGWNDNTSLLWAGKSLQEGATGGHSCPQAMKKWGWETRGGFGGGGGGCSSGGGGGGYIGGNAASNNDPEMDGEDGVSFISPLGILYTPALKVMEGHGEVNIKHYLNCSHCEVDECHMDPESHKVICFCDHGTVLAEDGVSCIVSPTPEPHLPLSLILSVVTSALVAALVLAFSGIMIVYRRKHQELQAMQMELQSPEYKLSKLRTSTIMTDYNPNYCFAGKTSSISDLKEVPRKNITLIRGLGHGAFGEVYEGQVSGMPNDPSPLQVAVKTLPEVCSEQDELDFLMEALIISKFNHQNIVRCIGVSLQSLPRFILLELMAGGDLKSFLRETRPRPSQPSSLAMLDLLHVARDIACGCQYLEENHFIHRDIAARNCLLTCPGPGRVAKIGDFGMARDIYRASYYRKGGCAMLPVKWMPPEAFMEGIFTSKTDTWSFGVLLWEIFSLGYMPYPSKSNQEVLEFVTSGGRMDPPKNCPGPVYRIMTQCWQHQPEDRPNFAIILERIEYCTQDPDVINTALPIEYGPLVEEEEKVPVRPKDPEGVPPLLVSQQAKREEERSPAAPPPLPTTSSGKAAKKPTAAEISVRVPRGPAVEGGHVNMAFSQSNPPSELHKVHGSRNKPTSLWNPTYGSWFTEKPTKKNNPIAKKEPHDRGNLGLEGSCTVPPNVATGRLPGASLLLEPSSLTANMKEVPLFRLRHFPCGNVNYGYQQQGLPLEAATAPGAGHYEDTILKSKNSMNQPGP

In [1], `CCOc1cc2ncc(C(N)=O)c(Nc3cccc(Cl)c3Cl)c2cc1N1CCN(C)CC1` showed a concentration for half-maximal inhibition (IC50) of under 3 nM. In addition, in [2], the concentration in solution (solubility) came to 50 µM (≈ 23.7 µg/mL). In addition, the unbound share (fraction unbound) in series [3] was 0.02. Also, the bioavailability in series [4] was determined as 100%. Besides, in [5], the clearance amounted to 57 mL/min/kg. Besides, the Vd in series [6] amounted to 3.5 L/kg. In series [7], this compound gave a half-life of 0.9 h. Also, the inhibition in vivo at 25 mg/kg in series [8] stood at 75%; in [9], 45%.

Consider `CCOc1cc2ncc(C(N)=O)c(Nc3ccc(F)cc3F)c2cc1N1CCN(C)CC1`, for which, in series [1], the IC50 worked out at 6 nM. In series [2], this compound gave a solubility of 290 µM (≈ 128 µg/mL). Further, in series [3], the fraction unbound amounted to 0.11. Also, the bioavailability in [4] is 100%. In series [5], this compound showed a clearance of 12 mL/min/kg. Moreover, in [6], the Vd was 2.5 L/kg. The half-life in series [7] was 2.1 h. Also, the inhibition in vivo at 25 mg/kg in series [8] came out at 90%; in [9], 65%. Moreover, the inhibition is 96% in series [10], 51% in series [11], 23% in series [12] and 21% in series [13].

In series [1], `COc1cc2ncc(C(N)=O)c(Nc3ccc(F)cc3F)c2cc1N1CCN(C)CC1` yielded a 50% inhibitory concentration (IC50) of 6 nM. The compound further returned an Activity in series [14] of 1 µM. Further, the solubility in series [2] is over 1000 µM. In addition, the fraction unbound in series [3] worked out at 0.25. In addition, the bioavailability in series [4] is 90%. The same compound displayed a clearance in series [5] of 15 mL/min/kg. The Vd in [6] stood at 2.3 L/kg. The same compound gave a half-life in [7] of 1.8 h.

In [1], `COc1cc2ncc(C(N)=O)c(Nc3cccc(Cl)c3Cl)c2cc1N1CCN(C)CC1` registered an IC50 of under 3 nM. For the same compound, the Activity in [14] was determined as 0.06 µM. For the same compound, in series [2], the solubility worked out at 810 µM (≈ 373 µg/mL). Moreover, the fraction unbound in series [3] came out at 0.045. For the same compound, in [4], the bioavailability was determined as 110%. Besides, the clearance in series [5] came to 76 mL/min/kg. The Vd in series [6] was 6.8 L/kg. The half-life in series [7] was 2.5 h.

Broadly, the IC50 is the concentration needed to halve the response being measured. Read a high IC50 as a need for much substance. By solubility is commonly meant how much of the substance goes into solution per volume. A lower solubility goes with little dissolved substance. One may read the fraction unbound as the share of the substance not bound to proteins or other matrix. The term half-life denotes the time needed for the level to fall by half in the phase considered. A high value points to slow loss. The term inhibition in vivo denotes the drop in the measured response relative to a control, in per cent. A higher inhibition in vivo goes with a strong effect. The term inhibition denotes the relative decrease from the control value, in per cent.

The record behind these values is ChEMBL document CHEMBL1143306, “3-amido-4-anilinoquinolines as CSF-1R kinase inhibitors 2: Optimization of the PK profile” (Bioorg Med Chem Lett, 2009).
